Measurements: the NIST ThermoML archive (doi:10.1021/je7000667)

Experiment: xn = mol fraction of the nth substance listed
Conditions: Gas, Burnett expansion method

FC(C(F)(F)F)C(F)(F)F [1,1,1,2,3,3,3-heptafluoropropane] + FCF
Conditions | mass density [kg/m3]
310 K, 149.52 kPa, x2 = 0.2648 | 8.291
310 K, 189.1 kPa, x2 = 0.5155 | 8.255
310 K, 204.07 kPa, x2 = 0.2648 | 11.439
310 K, 207.98 kPa, x2 = 0.7809 | 6.449
310 K, 258.01 kPa, x2 = 0.5155 | 11.389
310 K, 277.27 kPa, x2 = 0.2648 | 15.782
310 K, 284.06 kPa, x2 = 0.7809 | 8.897
310 K, 350.46 kPa, x2 = 0.5155 | 15.712
310 K, 374.4 kPa, x2 = 0.2648 | 21.774
310 K, 386.48 kPa, x2 = 0.7809 | 12.274
310 K, 473.07 kPa, x2 = 0.5155 | 21.676
310 K, 501.26 kPa, x2 = 0.2648 | 30.041
310 K, 523.12 kPa, x2 = 0.7809 | 16.934
310 K, 633.01 kPa, x2 = 0.5155 | 29.904
310 K, 662.59 kPa, x2 = 0.2648 | 41.446
310 K, 702.73 kPa, x2 = 0.7809 | 23.363
310 K, 836.5 kPa, x2 = 0.5155 | 41.255
310 K, 932.7 kPa, x2 = 0.7809 | 32.232
310 K, 1221.3 kPa, x2 = 0.7809 | 44.426
310 K, 1562.6 kPa, x2 = 0.7809 | 61.291
320 K, 154.66 kPa, x2 = 0.2648 | 8.285
320 K, 195.61 kPa, x2 = 0.5155 | 8.251
320 K, 211.27 kPa, x2 = 0.2648 | 11.431
320 K, 215.08 kPa, x2 = 0.7809 | 6.445
320 K, 267.14 kPa, x2 = 0.5155 | 11.383
320 K, 287.44 kPa, x2 = 0.2648 | 15.771
320 K, 294.06 kPa, x2 = 0.7809 | 8.892
320 K, 363.38 kPa, x2 = 0.5155 | 15.704
320 K, 388.88 kPa, x2 = 0.2648 | 21.758
320 K, 400.53 kPa, x2 = 0.7809 | 12.268
320 K, 491.5 kPa, x2 = 0.5155 | 21.665
320 K, 522.08 kPa, x2 = 0.2648 | 30.019
320 K, 543.05 kPa, x2 = 0.7809 | 16.926
320 K, 659.5 kPa, x2 = 0.5155 | 29.889
320 K, 693.04 kPa, x2 = 0.2648 | 41.416
320 K, 731.28 kPa, x2 = 0.7809 | 23.351
320 K, 875.19 kPa, x2 = 0.5155 | 41.235
320 K, 904.5 kPa, x2 = 0.2648 | 57.14
320 K, 974.36 kPa, x2 = 0.7809 | 32.216
320 K, 1142.5 kPa, x2 = 0.5155 | 56.888
320 K, 1282.2 kPa, x2 = 0.7809 | 44.404
320 K, 1653.9 kPa, x2 = 0.7809 | 61.261
320 K, 2072.7 kPa, x2 = 0.7809 | 84.517
330 K, 159.77 kPa, x2 = 0.2648 | 8.281
330 K, 202.1 kPa, x2 = 0.5155 | 8.247
330 K, 218.42 kPa, x2 = 0.2648 | 11.425
330 K, 222.17 kPa, x2 = 0.7809 | 6.442
330 K, 276.22 kPa, x2 = 0.5155 | 11.377
330 K, 297.52 kPa, x2 = 0.2648 | 15.763
330 K, 303.95 kPa, x2 = 0.7809 | 8.888
330 K, 376.17 kPa, x2 = 0.5155 | 15.696
330 K, 403.18 kPa, x2 = 0.2648 | 21.748
330 K, 414.44 kPa, x2 = 0.7809 | 12.262
330 K, 509.64 kPa, x2 = 0.5155 | 21.654
330 K, 542.59 kPa, x2 = 0.2648 | 30.004
330 K, 562.74 kPa, x2 = 0.7809 | 16.917
330 K, 685.57 kPa, x2 = 0.5155 | 29.874
330 K, 722.83 kPa, x2 = 0.2648 | 41.396
330 K, 759.44 kPa, x2 = 0.7809 | 23.34
330 K, 913.06 kPa, x2 = 0.5155 | 41.214
330 K, 948.75 kPa, x2 = 0.2648 | 57.112
330 K, 1015.2 kPa, x2 = 0.7809 | 32.2
330 K, 1198.4 kPa, x2 = 0.5155 | 56.859
330 K, 1218.7 kPa, x2 = 0.2648 | 78.795
330 K, 1341.7 kPa, x2 = 0.7809 | 44.382
330 K, 1540 kPa, x2 = 0.5155 | 78.443
330 K, 1742.4 kPa, x2 = 0.7809 | 61.23
330 K, 2206.8 kPa, x2 = 0.7809 | 84.475
340 K, 164.86 kPa, x2 = 0.2648 | 8.277
340 K, 208.54 kPa, x2 = 0.5155 | 8.243
340 K, 225.54 kPa, x2 = 0.2648 | 11.42
340 K, 229.21 kPa, x2 = 0.7809 | 6.439
340 K, 285.24 kPa, x2 = 0.5155 | 11.372
340 K, 307.52 kPa, x2 = 0.2648 | 15.755
340 K, 313.78 kPa, x2 = 0.7809 | 8.884
340 K, 388.85 kPa, x2 = 0.5155 | 15.688
340 K, 417.35 kPa, x2 = 0.2648 | 21.737
340 K, 428.24 kPa, x2 = 0.7809 | 12.256
340 K, 527.64 kPa, x2 = 0.5155 | 21.643
340 K, 562.85 kPa, x2 = 0.2648 | 29.989
340 K, 582.27 kPa, x2 = 0.7809 | 16.909
340 K, 711.31 kPa, x2 = 0.5155 | 29.859
340 K, 752.13 kPa, x2 = 0.2648 | 41.375
340 K, 787.28 kPa, x2 = 0.7809 | 23.328
340 K, 950.24 kPa, x2 = 0.5155 | 41.194
340 K, 991.76 kPa, x2 = 0.2648 | 57.084
340 K, 1055.4 kPa, x2 = 0.7809 | 32.184
340 K, 1252.9 kPa, x2 = 0.5155 | 56.831
340 K, 1283.1 kPa, x2 = 0.2648 | 78.756
340 K, 1399.9 kPa, x2 = 0.7809 | 44.36
340 K, 1614 kPa, x2 = 0.2648 | 108.656
340 K, 1621.4 kPa, x2 = 0.5155 | 78.404
340 K, 1828.5 kPa, x2 = 0.7809 | 61.2
340 K, 2042.8 kPa, x2 = 0.5155 | 108.166
340 K, 2336.2 kPa, x2 = 0.7809 | 84.433
350 K, 169.93 kPa, x2 = 0.2648 | 8.273
350 K, 214.96 kPa, x2 = 0.5155 | 8.239
350 K, 232.62 kPa, x2 = 0.2648 | 11.414
350 K, 236.22 kPa, x2 = 0.7809 | 6.436
350 K, 294.24 kPa, x2 = 0.5155 | 11.366
350 K, 317.47 kPa, x2 = 0.2648 | 15.747
350 K, 323.59 kPa, x2 = 0.7809 | 8.879
350 K, 401.46 kPa, x2 = 0.5155 | 15.68
350 K, 431.39 kPa, x2 = 0.2648 | 21.726
350 K, 441.97 kPa, x2 = 0.7809 | 12.25
350 K, 545.49 kPa, x2 = 0.5155 | 21.633
350 K, 582.86 kPa, x2 = 0.2648 | 29.974
350 K, 601.65 kPa, x2 = 0.7809 | 16.901
350 K, 736.76 kPa, x2 = 0.5155 | 29.844
350 K, 780.99 kPa, x2 = 0.2648 | 41.355
350 K, 814.82 kPa, x2 = 0.7809 | 23.317
350 K, 986.94 kPa, x2 = 0.5155 | 41.173
350 K, 1033.9 kPa, x2 = 0.2648 | 57.055
350 K, 1095 kPa, x2 = 0.7809 | 32.168
350 K, 1306.5 kPa, x2 = 0.5155 | 56.803
350 K, 1345.8 kPa, x2 = 0.2648 | 78.717
350 K, 1457.2 kPa, x2 = 0.7809 | 44.338
350 K, 1700.8 kPa, x2 = 0.5155 | 78.365
350 K, 1709.1 kPa, x2 = 0.2648 | 108.602
350 K, 1912.8 kPa, x2 = 0.7809 | 61.169
350 K, 2092.9 kPa, x2 = 0.2648 | 149.834
350 K, 2162.7 kPa, x2 = 0.5155 | 108.113
350 K, 2462 kPa, x2 = 0.7809 | 84.391
350 K, 2654.5 kPa, x2 = 0.5155 | 149.152
360 K, 174.96 kPa, x2 = 0.2648 | 8.269
